The nature of series [1]: Retention time of peptide in HPLC (hydrophobicity). It counts as physicochemical. To be noted: used as measure of hydrophobicity (order Z-d14CR > Z-d14CF > Z-d13 > Z-d14CFR > Z-d14C); column and gradient not given.
The subject of series [2] is Proteus vulgaris CVCC1971. In words: MIC/MBC, microdilution broth method. The following applies: Proteus vulgaris CVCC1971; for MIC: 1 × 10^6 CFU/mL, 18 h at 37 °C, NA = no antimicrobial activity at 1 mg/mL; for MBC: kills 99.9% bacteria, NA = no activity at 1 mg/mL. The series is classed as cell-based. How it is done: (§1) The MIC of peptides against bacteria was carried out by the microdilution broth method. The bacterial culture (OD 600 = 0.6) was diluted in 10 mM PBS to 1 × 10^6 CFU/mL. The bacterial suspension (100 μL) was added to 96-well plates, and the same volume of peptides, ampicillin or gentamicin (concentrations ranging from 0.001 to 2 mg/mL) were then added to the same 96-well plates, respectively.
On the technique in general: Broth dilution looks for growth in wells or tubes with falling amounts of substance.

The test system of series [3] is Klebsiella pneumoniae CAU202084. In words: MIC/MBC, microdilution broth method. The series is classed as cell-based. To be noted: Klebsiella pneumoniae CAU202084 (MDR isolate); for MIC: 1 × 10^6 CFU/mL, 18 h at 37 °C, NA = no antimicrobial activity at 1 mg/mL; for MBC: kills 99.9% bacteria, NA = no activity at 1 mg/mL. As for the experimental part:
as §1

Series [4] relates to Streptococcus suis CVCC3307. In words: MIC/MBC, microdilution broth method. It counts as cell-based. To be noted: Streptococcus suis CVCC3307; for MIC: 1 × 10^6 CFU/mL, 18 h at 37 °C, NA = no antimicrobial activity at 1 mg/mL; for MBC: kills 99.9% bacteria, NA = no activity at 1 mg/mL. As for the experimental part: as §1
The test system of series [5] is Staphylococcus haemolyticus CAU202078. The series is described as follows: MIC/MBC, microdilution broth method. It counts as cell-based. The following applies: Staphylococcus haemolyticus CAU202078 (MDR isolate); for MIC: 1 × 10^6 CFU/mL, 18 h at 37 °C, NA = no antimicrobial activity at 1 mg/mL; for MBC: kills 99.9% bacteria, NA = no activity at 1 mg/mL. How it is done: as §1

Series [6] has as its system Salmonella typhimurium ATCC14028. In words: MIC/MBC, microdilution broth method. The series is classed as cell-based. The following applies: Salmonella typhimurium ATCC14028; for MIC: 1 × 10^6 CFU/mL, 18 h at 37 °C, NA = no antimicrobial activity at 1 mg/mL; for MBC: kills 99.9% bacteria, NA = no activity at 1 mg/mL. How it is done: as §1
A further series concerns MRSA ATCC33591. The series is described as follows: MIC/MBC, microdilution broth method. It counts as cell-based, S. aureus. To be noted: for MIC: MRSA (methicillin-resistant S. aureus) ATCC33591, 1 × 10^6 CFU/mL, 18 h at 37 °C, NA = no antimicrobial activity at 1 mg/mL; for MBC: MRSA ATCC33591, kills 99.9% bacteria, NA = no activity at 1 mg/mL. As for the experimental part:
as §1

Series [7] concerns Escherichia coli CAU 201919. In words: MIC/MBC, microdilution broth method. The series is classed as cell-based. To be noted: Escherichia coli CAU 201919 (MDR isolate). As for the experimental part:
as §1

In series [8] the test system is Escherichia coli CVCC1450. In words: MIC/MBC, microdilution broth method. It counts as cell-based. To be noted: Escherichia coli CVCC1450. As for the experimental part:
as §1

Series [9] has as its system Staphylococcus aureus ATCC29213. In words: MIC/MBC, microdilution broth method. It counts as cell-based. To be noted: Staphylococcus aureus ATCC29213. As for the experimental part: as §1
Setting [10] is: 1 × 10^6 CFU/mL, 18 h at 37 °C, NA = no antimicrobial activity at 1 mg/mL.
Setting [11] is: kills 99.9% bacteria, NA = no activity at 1 mg/mL.

Experimental findings from publication PMC9105976, “A Novel β-Hairpin Peptide Z-d14CFR Enhances Multidrug-Resistant Bacterial Clearance in a Murine Model of Mastitis” (International Journal of Molecular Sciences, 2022) are described below.

Positions of bridges follow the written chain, without caps; N, C: chain ends. Residues, ends and D or L forms follow the SMILES beside them.

For the molecule `CC(C)[C@@H]1NC(=O)[C@@H]2CSSC[C@H](NC(=O)[C@H](CCCNC(=N)N)NC(=O)[C@@H](NC(=O)CNC(=O)[C@@H](N)CCCNC(=N)N)CSSC[C@@H](C(=O)N[C@@H](CCCNC(=N)N)C(N)=O)NC1=O)C(=O)N[C@@H](CC(N)=O)C(=O)N[C@@H](CO)C(=O)N[C@@H](CCCCN)C(=O)N[C@@H](CO)C(=O)N[C@@H](C(C)C)C(=O)N2` [Z-d14CR] (H-RGCRCNSKSVCVCR-NH2; disulfide 3-13, 5-11; N-terminus assumed), in [1], the “RT, retention time of peptide in HPLC” value is on record as 10.159 min. In addition, the MIC result (in [2]; in series [3]; in series [4]; in series [5]; in series [6]; against MRSA ATCC33591) was “NA (NA) (No antimicrobial activity at 1 mg/mL)” throughout. Besides, the MBC entry (in [2]; in series [3]; in [4]; in series [5]; in series [6]; with MRSA ATCC33591) was “NA (NA) (No antimicrobial activity at 1 mg/mL)” in each case.

Consider `CC(C)[C@@H]1NC(=O)[C@@H]2CSSC[C@H](NC(=O)[C@H](Cc3ccc(O)cc3)NC(=O)[C@@H](NC(=O)CNC(=O)[C@@H](N)CCCNC(=N)N)CSSC[C@@H](C(=O)N[C@@H](CCCNC(=N)N)C(N)=O)NC1=O)C(=O)N[C@@H](CC(N)=O)C(=O)N[C@@H](CO)C(=O)N[C@@H](CCCCN)C(=O)N[C@@H](CO)C(=O)N[C@@H](C(C)C)C(=O)N2` [Z-d14C] (H-RGCYCNSKSVCVCR-NH2; disulfide 3-13, 5-11; N-terminus assumed), for which the “RT, retention time of peptide in HPLC” value in [1] came to 7.809 min. Besides, the MIC result in [2], in [3], in [7] (setting [10]), in series [8] (setting [10]), in series [4] and in series [9] (setting [10]) was “NA (NA) (No antimicrobial activity at 1 mg/mL)” throughout. In addition, the MIC entry (in [5]; in [6]; in the series on MRSA ATCC33591) was “NA (NA) (No antimicrobial activity at 1 mg/mL)” each time. Further, the MBC result in series [2] was “NA (NA) (No antimicrobial activity at 1 mg/mL)”; in [3], “NA (NA) (No antimicrobial activity at 1 mg/mL)”; in series [7] (setting [11]) it was “NA (NA) (No antimicrobial activity at 1 mg/mL)”; in series [8] (minimum concentration which kills 99.9% bacteria, NA = no activity at 1 mg/mL), “NA (NA) (No antimicrobial activity at 1 mg/mL)”; in series [4], “NA (NA) (No antimicrobial activity at 1 mg/mL)”; in [9] (setting [11]) it was “NA (NA) (No antimicrobial activity at 1 mg/mL)”. The MBC entry (in [5]; in series [6]; in the series on MRSA ATCC33591) was “NA (NA) (No antimicrobial activity at 1 mg/mL)” throughout.
